Several values for one entry are separate records, joined by “and”; a condition that tells them apart may be missing. Equal entries are not always repeated.
Assays:
wild-type mice = experiment: PND15 wild-type mice tolerability study: clinical signs, wire hang, NCV, histology; format: in vivo, mouse
Description: Animals were euthanized with CO2 followed by cardiac puncture. Blood was collected via cardiac puncture and split for blood chemistry and hematology.
Beginning on the 2nd week of treatment mice were trained weekly for two weeks. Mice are placed on a wire grid, which is shaken to increase wire grabbing, and then immediately turned over. Mice are timed for their ability to hang from the inverted grid for 1 min. Three trials are performed, up to 1 min each, with a 30 s recovery period between trials. After training, mice were tested weekly and times recorded. The test was done with the grid held 10–12 in. over a box of clean shavings.
Brains were collected after removal of the calvarium, weighted, and halved following the midline. The brain was sectioned in the mid-sagittal plane with half placed in 10% NBF. One sciatic nerve and other organs [heart, lung, liver, spleen, kidney, adrenal glands, stomach, small intestine, large intestine, spinal cord (cervical, thoracic, lumbar), skin, testes, and lymph nodes] were also collected and fixed in 10% NBF. Sections of sciatic nerve were also fixed in 2% PFA, 2% glutaraldehyde, embedded, sectioned and stained with Toluidine blue before scanning. Images were analyzed to determine the G-ratio in the […].
Mice were anesthetized with isoflurane and placed on a thermostatically controlled heating pad to maintain body temperature. The recording electrode was inserted into the plantar muscles and a reference electrode was placed in the skin between toes. A pair of subcutaneous stimulating electrodes were placed distally on both sides of the ankle to stimulate the lateral plantar nerve. For proximal stimulation, the electrodes are moved to the level of the sciatic notch, to the depth of the sciatic nerve. […] Six distally-produced CMAPs were recorded and stored. The procedure was repeated using the proximal electrode pair, and current was increased until a CMAP that matches that produced by distal stimulation was evident. Six proximally-produced CMAPs were recorded and stored. The distance between the sites of stimulation was measured. NCV was later calculated using the two latencies and conduction distance. The H wave was recorded during the recording of the distally stimulated CMAPs.

wild-type C57BL/6 mice = experiment: PND3 wild-type mouse repeat dose study: tolerability; format: in vivo
[1] = biological target: T1, CGT in CHO cells stably expressing human UGT8 (Homo sapiens, UniProt Q16880); experiment: CGT cellular assay (intact-cell assay); format: cell-based
T1 construct: expressed in transfected cells; host or cells: CHO cells stably expressing human UGT8
T1 sequence (Q16880 21-541): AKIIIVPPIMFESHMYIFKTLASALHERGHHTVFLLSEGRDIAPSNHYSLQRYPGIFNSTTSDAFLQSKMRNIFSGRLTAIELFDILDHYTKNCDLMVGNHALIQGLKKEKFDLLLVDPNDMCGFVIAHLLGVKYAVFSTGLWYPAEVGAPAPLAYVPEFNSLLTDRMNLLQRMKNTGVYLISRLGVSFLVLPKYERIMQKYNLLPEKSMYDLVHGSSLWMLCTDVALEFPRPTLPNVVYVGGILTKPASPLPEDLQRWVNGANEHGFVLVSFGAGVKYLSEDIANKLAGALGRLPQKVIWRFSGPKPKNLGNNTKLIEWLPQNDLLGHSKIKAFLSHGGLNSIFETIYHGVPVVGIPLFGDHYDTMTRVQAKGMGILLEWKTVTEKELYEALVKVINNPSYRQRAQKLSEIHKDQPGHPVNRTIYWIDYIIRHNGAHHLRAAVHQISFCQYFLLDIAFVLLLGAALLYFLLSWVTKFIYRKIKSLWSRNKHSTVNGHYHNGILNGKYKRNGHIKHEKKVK
Description: 3 × 10^4 CHO cells stably expressing human UGT8 were seeded in a 96-well TC plate in F12K + 10% FBS (Invitrogen, qualified, Australia, 10099141) and incubated at 37 °C, 5% CO2 overnight. Media was removed and compounds, diluted in F12K + 5% FBS (0.1% DMSO final) containing 1 µM eliglustat to prevent NBD-glucosylceramide formation, were added to the cells and incubated 2 h at 37 °C. NDB-(2R-OH)-C6-ceramide (BioMarin) in F12K + 5% FBS + 11% BSA was added to a final substrate concentration of 10 µM in 1% BSA and incubated 1 h at 37 °C before extracting in methanol/0.5% acetic acid containing N-dodecanoyl-NBD-galactosylceramide IS (1 µM). After 2 h shaking, the solution was centrifuged at 4000 rpm for 30 min, and 80 µL of supernatant was transferred to 40 µL H2O, mixed and centrifuged at 4000 rpm for 10 min. NDB-(2R-OH)-C6-galactosylceramide product was quantified by a Shimadzu ultra-fast liquid chromatography system (Shimadzu) coupled to an API 4000 mass spectrometer in ESI negative mode (Applied Biosystems) using a Kinetex C18 column (50 × 2.1 mm, 2.6 µm, 100 Å) (Phenomenex) with 0.1% formic acid and acetonitrile supplemented with 0.1% formic acid.

rhARSA = biological target: T2, rhARSA (Homo sapiens, UniProt P15289); experiment: Arylsulfatase A assay; format: biochemical; settings: read-out: ARSA IC50
T2 construct: purchased R&D systems
T2 sequence (P15289 19-507): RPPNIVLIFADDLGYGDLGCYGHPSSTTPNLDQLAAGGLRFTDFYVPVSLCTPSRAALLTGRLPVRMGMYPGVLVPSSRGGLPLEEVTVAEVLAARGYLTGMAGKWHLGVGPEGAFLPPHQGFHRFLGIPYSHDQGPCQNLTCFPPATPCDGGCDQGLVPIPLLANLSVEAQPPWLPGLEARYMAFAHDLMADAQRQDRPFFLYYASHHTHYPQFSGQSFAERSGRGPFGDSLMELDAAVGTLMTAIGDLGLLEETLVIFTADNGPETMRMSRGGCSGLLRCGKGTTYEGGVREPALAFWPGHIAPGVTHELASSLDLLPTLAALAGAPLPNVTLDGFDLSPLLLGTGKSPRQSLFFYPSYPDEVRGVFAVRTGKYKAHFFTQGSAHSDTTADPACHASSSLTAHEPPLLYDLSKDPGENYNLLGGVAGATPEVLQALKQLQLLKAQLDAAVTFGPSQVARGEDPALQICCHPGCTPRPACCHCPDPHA
Description: The ARSA assay was modified from a previously reported method. The reaction mixture contained 40 ng of rhARSA (R&D systems), various concentrations of inhibitor, and 6.2 µM N-octadecanoyl-d3-sulfatide substrate in reaction buffer (0.08 M sodium acetate at pH 4.5, 2.08 g/L sodium taurodeoxycholate, 33 mM MnCl2, 0.4% DMSO) and was incubated for 16 h at 37 °C. The reaction was terminated with equal volume MeOH:ethyl acetate (EA). N-octadecanoyl-d35-psychosine (Matreya) was added as the IS, together with 400 µL EA and 200 µL H2O. After centrifugation, 200 µL of the EA layer was dried under a stream of N2 and resuspended in 100 µL MeOH before quantifying the N-octadecanoyl-d3-galactosylceramide product using a reported UPLC–MS/MS method.

[2] = wild-type mice, chronic, 2.3 and 5.4 mg/kg

With `C[C@H]1N(c2ccc(Br)cc2)C(=O)N(c2ccc(Br)cc2)C1(O)c1cccc(OC(F)(F)F)c1` (stereo partly shown) [S202] the testes histopathology (wild-type mice; wild-type mice treated from PND15 to PND70) was “germ cell exfoliation with decreased germinal epithelial layers”, the “longer-term (8 week) tolerability” value (wild-type mice; wild-type mice, IP three times per week from PND15, 2.3 mg/kg and 5.4 mg/kg) was “well tolerated with no mortality, change in weight, or grossly abnormal clinical signs” and the “brain and spinal cord histology (H&E, luxol fast blue/PAS)” value (wild-type mice; wild-type mice, chronic treatment from PND15) was “widespread vacuolation”. The “sciatic nerve conduction velocity (NCV)” value (wild-type mice; [2]) was “significant and dose-dependent reduction”, the wire hang test (wild-type mice; [2]) was “impaired performance on the wire hang test” and the gait (wild-type mice; wild-type mice, chronic, 2.3 and 5.4 mg/kg, some mice) was “mild gait abnormality”. The phenotypes (wild-type C57BL/6 mice; daily IP PND3 to PND40, above 0.5 mg/kg) was “reduced weight gain, mild hind limb gait abnormalities, and some animal deaths”, the tolerability (wild-type C57BL/6 mice; daily IP PND3 to PND40, lower doses) was “well tolerated at lower doses” and the IC50 [1] was 2 nM and 3.6 nM and 3 nM. The IC50 (rhARSA) was over 50000 nM.
